# Legend:
# Format in all cases: in vivo
# [1] = test system: barnyardgrass (Echinochloa crus-galli, ECHCG); experiment: Greenhouse herbicide screen, post-emerge application, phytotoxicity rating; conditions: POST emergent, 14 days after application, scale 0-100
# Procedure, shortened: (§1)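 Sown 1 d (pre) or 8–21 d (post) ahead; sprayed 15–1000 g ai/ha in acetone, 187 l/ha; nozzle 40–45 cm above canopy/soil; scored 0–100 at day 14.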
# [2] = test system: cocklebur (Xanthium strumarium, XANST); experiment: as above; conditions: POST emergent, 14 days after application, scale 0-100
# Procedure, shortened: as §1
# [3] = test system: common ragweed (Ambrosia artemisiifolia L., AMBEL); experiment: as above; conditions: POST emergent, 14 days after application, scale 0-100
# Procedure, shortened: as §1
# [4] = test system: green foxtail (Setaria viridis, SETVI); experiment: as above; conditions: POST emergent, 14 days after application, scale 0-100
# Procedure, shortened: as §1
# [5] = test system: ivyleaf morningglory (Ipomoea hederacea, IPOHE); experiment: as above; conditions: POST emergent, 14 days after application, scale 0-100
# Procedure, shortened: as §1
# [6] = test system: johnsongrass (Sorghum halepense, SORHA); experiment: as above; conditions: POST emergent, 14 days after application, scale 0-100
# Procedure, shortened: as §1
# [7] = test system: lambsquarters (Chenopodium album, CHEAL); experiment: as above; conditions: POST emergent, 14 days after application, scale 0-100
# Procedure, shortened: as §1
# [8] = test system: large crabgrass (Digitaria sanguinalis, DIGSA); experiment: as above; conditions: POST emergent, 14 days after application, scale 0-100
# Procedure, shortened: as §1
# [9] = test system: redroot pigweed (Amaranthus retrofiexus, AMARE); experiment: as above; conditions: POST emergent, 14 days after application
# Procedure, shortened: as §1
# [10] = test system: sicklepod (Cassia obtusifolia, CASOB); experiment: as above; conditions: POST emergent, 14 days after application, scale 0-100
# Procedure, shortened: as §1
# [11] = test system: velvetleaf (Abutilon theophrasti, ABUTH); experiment: as above; conditions: POST emergent, 14 days after application, scale 0-100
# Procedure, shortened: as §1
# [12] = test system: field corn (Zea mays L., var. Dekalb 535, CORN); experiment: Greenhouse herbicide screen, post-emerge application, crop damage rating; conditions: POST emergent, 14 days after application, scale 0-100
# Procedure, shortened: as §1
# [13] = test system: soybean (Glycine max L., var. Pella 86, SOY); experiment: as above; conditions: POST emergent, 14 days after application, scale 0-100
# Procedure, shortened: as §1
# [14] = test system: upland rice (Oryza sp., var.Cocodrie, RICE); experiment: as above; conditions: POST emergent, 14 days after application, scale 0-100
# Procedure, shortened: as §1
# [15] = test system: wheat (Triticum aestivum L.); experiment: as above; conditions: POST emergent, 14 days after application, scale 0-100
# Procedure, shortened: as §1
# [16] = test system: barnyardgrass (Echinochloa crus-galli, ECHCG); experiment: Greenhouse herbicide screen, pre-emerge application, phytotoxicity rating; conditions: PRE emergent, 14 days after application, rating scale 0-100
# Procedure, shortened: as §1
# [17] = test system: cocklebur (Xanthium strumarium, XANST); experiment: as above; conditions: PRE emergent, 14 days after application, rating scale 0-100
# Procedure, shortened: as §1
# [18] = test system: common ragweed (Ambrosia artemisiifolia L., AMBEL); experiment: as above; conditions: PRE emergent, 14 days after application, rating scale 0-100
# Procedure, shortened: as §1
# [19] = test system: green foxtail (Setaria viridis, SETVI); experiment: as above; conditions: PRE emergent, 14 days after application, rating scale 0-100
# Procedure, shortened: as §1
# [20] = test system: ivyleaf morningglory (Ipomoea hederacea, IPOHE); experiment: as above; conditions: PRE emergent, 14 days after application, rating scale 0-100
# Procedure, shortened: as §1
# [21] = test system: johnsongrass (Sorghum halepense, SORHA); experiment: as above; conditions: PRE emergent, 14 days after application, rating scale 0-100
# Procedure, shortened: as §1
# [22] = test system: lambsquarters (Chenopodium album, CHEAL); experiment: as above; conditions: PRE emergent, 14 days after application, rating scale 0-100
# Procedure, shortened: as §1
# [23] = test system: large crabgrass (Digitaria sanguinalis, DIGSA); experiment: as above; conditions: PRE emergent, 14 days after application, rating scale 0-100
# Procedure, shortened: as §1
# [24] = test system: redroot pigweed (Amaranthus retrofiexus, AMARE); experiment: as above; conditions: PRE emergent, 14 days after application, rating scale 0-100
# Procedure, shortened: as §1
# [25] = test system: sicklepod (Cassia obtusifolia, CASOB); experiment: as above; conditions: PRE emergent, 14 days after application, rating scale 0-100
# Procedure, shortened: as §1
# [26] = test system: velvetleaf (Abutilon theophrasti, ABUTH); experiment: as above; conditions: PRE emergent, 14 days after application, rating scale 0-100
# Procedure, shortened: as §1
# [27] = test system: field corn (Zea mays L., var. Dekalb 535, CORN); experiment: Greenhouse herbicide screen, pre-emerge application, crop damage rating; conditions: PRE emergent, 14 days after application, rating scale 0-100
# Procedure, shortened: as §1
# [28] = test system: soybean (Glycine max L., var. Pella 86, SOY); experiment: as above; conditions: PRE emergent, 14 days after application, rating scale 0-100
# Procedure, shortened: as §1
# [29] = test system: upland rice (Oryza sp., var.Cocodrie, RICE); experiment: as above; conditions: PRE emergent, 14 days after application, rating scale 0-100
# Procedure, shortened: as §1
# [30] = test system: wheat (Triticum aestivum L.); experiment: as above; conditions: PRE emergent, 14 days after application, rating scale 0-100
# Procedure, shortened: as §1
smiles,measurement,setting,value
"Cn1c(C(F)(F)F)cc(=O)n(-c2cc(C(=O)NNC(=O)OC(C)(C)C)c(Cl)cc2F)c1=O [Compound 1-24, 2-chloro-5-(3,6-dihydro-3-methyl-2,6-dioxo-4-(trifluoromethyl)-1(2H)-pyrimidinyl)-4-fluoro-benzoic Acid, 2-(1,1-dimethylethyloxy)carbonyl Hydrazide]",phytotoxicity rating ECHCO,[1]; 63 g ai/ha,35
same,phytotoxicity rating ECHCO,[1]; 250 g ai/ha,50
same,phytotoxicity rating XANST,[2]; 63 g ai/ha,100
same,phytotoxicity rating XANST,[2]; 250 g ai/ha,100
same,phytotoxicity rating AMBEL,[3]; 63 g ai/ha,100
same,phytotoxicity rating AMBEL,[3]; 250 g ai/ha,100
same,phytotoxicity rating SETVI,[4]; 63 g ai/ha,35
same,phytotoxicity rating SETVI,[4]; 250 g ai/ha,60
same,phytotoxicity rating IPOHE,[5]; 63 g ai/ha,100
same,phytotoxicity rating IPOHE,[5]; 250 g ai/ha,100
same,phytotoxicity rating SORHA,[6]; 63 g ai/ha,35
same,phytotoxicity rating SORHA,[6]; 250 g ai/ha,55
same,phytotoxicity rating CHEAL,[7]; 63 g ai/ha,100
same,phytotoxicity rating CHEAL,[7]; 250 g ai/ha,100
same,phytotoxicity rating DIGSA,[8]; 63 g ai/ha,20
same,phytotoxicity rating DIGSA,[8]; 250 g ai/ha,35
same,phytotoxicity rating AMARE,"[9]; 63 g ai/ha, scale 0-100 (0 no damage, 100 complete death)",100
same,phytotoxicity rating AMARE,"[9]; 250 g ai/ha, scale 0-100",100
same,phytotoxicity rating CASOB,[10]; 63 g ai/ha,75
same,phytotoxicity rating CASOB,[10]; 250 g ai/ha,95
same,phytotoxicity rating ABUTH,[11]; 63 g ai/ha,100
same,phytotoxicity rating ABUTH,[11]; 250 g ai/ha,100
same,crop damage rating CORN,[12]; 63 g ai/ha,90
same,crop damage rating CORN,[12]; 250 g ai/ha,95
same,crop damage rating SOY,[13]; 63 g ai/ha,8
same,crop damage rating SOY,[13]; 250 g ai/ha,15
same,crop damage rating RICE,[14]; 63 g ai/ha,60
same,crop damage rating RICE,[14]; 250 g ai/ha,65
same,crop damage rating WHEAT,[15]; 63 g ai/ha,15
same,crop damage rating WHEAT,[15]; 250 g ai/ha,60
same,phytotoxicity rating ECHCG,[16]; 63 g ai/ha,0
same,phytotoxicity rating ECHCG,[16]; 250 g ai/ha,50
same,phytotoxicity rating XANST,[17]; 63 g ai/ha,50
same,phytotoxicity rating XANST,[17]; 250 g ai/ha,90
same,phytotoxicity rating AMBEL,[18]; 63 g ai/ha,50
same,phytotoxicity rating AMBEL,[18]; 250 g ai/ha,75
same,phytotoxicity rating SETVI,[19]; 63 g ai/ha,10
same,phytotoxicity rating SETVI,[19]; 250 g ai/ha,45
same,phytotoxicity rating IPOHE,[20]; 63 g ai/ha,100
same,phytotoxicity rating IPOHE,[20]; 250 g ai/ha,100
same,phytotoxicity rating SORHA,[21]; 63 g ai/ha,0
same,phytotoxicity rating SORHA,[21]; 250 g ai/ha,40
same,phytotoxicity rating CHEAL,[22]; 63 g ai/ha,100
same,phytotoxicity rating CHEAL,[22]; 250 g ai/ha,100
same,phytotoxicity rating DIGSA,[23]; 63 g ai/ha,0
same,phytotoxicity rating DIGSA,[23]; 250 g ai/ha,40
same,phytotoxicity rating AMARE,[24]; 63 g ai/ha,80
same,phytotoxicity rating AMARE,[24]; 250 g ai/ha,99
same,phytotoxicity rating CASOB,[25]; 63 g ai/ha,50
same,phytotoxicity rating CASOB,[25]; 250 g ai/ha,95
same,phytotoxicity rating ABUTH,[26]; 63 g ai/ha,98
same,phytotoxicity rating ABUTH,[26]; 250 g ai/ha,99
same,crop damage rating CORN,[27]; 63 g ai/ha,0
same,crop damage rating CORN,[27]; 250 g ai/ha,100
same,crop damage rating SOY,[28]; 63 g ai/ha,50
same,crop damage rating SOY,[28]; 250 g ai/ha,100
same,crop damage rating RICE,[29]; 63 g ai/ha,5
same,crop damage rating RICE,[29]; 250 g ai/ha,30
same,crop damage rating WHEAT,[30]; 63 g ai/ha,20
same,crop damage rating WHEAT,[30]; 250 g ai/ha,60
